Results published in paper PMC10254235, “Design, Synthesis, and Anti-Cervical Cancer and Reversal of Tumor Multidrug Resistance Activity of Novel Nitrogen-Containing Heterocyclic Chalcone Derivatives” (Molecules, 2023).
Read-outs that look alike come from different tables or passages of the source.

Columns and labels:
Assay type in all cases: cell-based, human
HeLa cells = assay: MTT antiproliferative assay, HeLa cells; settings: 48 h
Protocol: (§1) HeLa and SiHa cell lines were obtained from the Procell Life Science Technology Co., Ltd. (Wuhan, China); H8 cell line was obtained from the Shanghai HonSun Biological Technology Co., Ltd. (Shanghai, China); HUVEC cell line was obtained from the Saibaikang (Shanghai) Biotechnology Co., Ltd. (Shanghai, China); HeLa/DDP cell line was obtained from the Guangzhou Jenniobio Biotechnology Co., Ltd. (Guangzhou, China). HeLa, SiHa, H8, and HeLa/DDP cells were cultured in DMEM medium (HyClone). The VEGF of 50 ng/mL was used as the promoter of the VEGFR-2 receptor on HUVEC cell membrane surfaces, and their inhibitory effects on VEGFR-2 were determined. All the mediums were supplemented with 10% FBS (HyClone, GE Healthcare, Australia). Cells were maintained at subconfluency at 37 °C in humidified air containing 5% CO2. The cells were monitored daily and maintained at 80% cell density. All compounds tested were dissolved in DMSO and then diluted by the culture medium before the treatment of cultured cells. Identification reports are available for all types of cell lines involved in this study.
(§2) The cytotoxicity of the target compounds were measured in vitro using the MTT assay. Cells grown in the logarithmic phase were counted and seeded in 96-well cell culture plates (5 × 10^3 cells per well) for 24 h to allow attachment of cells to the wall of the plate. […] Next, 20 μL of 5 mg.mL^−1 MTT solution was added to each well and cultured for 4 h. The old solution was discarded, replaced with 150 μL DMSO solution per well, and shaken for 10 min. The OD value was measured under 490 nm, and the inhibition rate was calculated. The nonlinear regression fitting of the cell growth rate was carried out using SPSS 23.0 software, and the IC50 of the compound was calculated. […] There were 6 compound holes in each group, and the experimental results were presented as the average of 3 experiments. A complete medium containing only cells was used as the blank control, whereas a complete medium without cells was the negative control group. Cisplatin and sorafenib were utilized as the positive control group, and the target compound was the experimental intervention group.

SiHa cells = assay: MTT antiproliferative assay, SiHa cells; settings: 48 h, mean ± SD
Protocol: as §1, §2

H8 cells = assay: MTT cytotoxicity assay, normal cervical epithelial H8 cells; settings: 48 h, mean ± SD
Protocol: as §1, §2

HeLa/DDP cells = assay: MTT assay, cisplatin-resistant HeLa/DDP cells; settings: single agent; for RI (resistance index): HeLa/DDP versus HeLa; for IC50: cisplatin-resistant HeLa/DDP cells, 48 h, read-out: 48h IC50 HeLa/DDP
Protocol: The cytotoxicity of the target compounds were measured in vitro using the MTT assay. Cells grown in the logarithmic phase were counted and seeded in 96-well cell culture plates (5 × 10^3 cells per well) for 24 h to allow attachment of cells to the wall of the plate. […] Next, 20 μL of 5 mg.mL^−1 MTT solution was added to each well and cultured for 4 h. The old solution was discarded, replaced with 150 μL DMSO solution per well, and shaken for 10 min. The OD value was measured under 490 nm, and the inhibition rate was calculated. The nonlinear regression fitting of the cell growth rate was carried out using SPSS 23.0 software, and the IC50 of the compound was calculated. […] A complete medium containing only cells was used as the blank control, whereas a complete medium without cells was the negative control group.
To reduce the adverse reactions caused by the fixation of drug resistance reversal agents, the concentration that reduces the proliferation rate of tumor cells by less than 10% was selected.

[1] = Homo sapiens, MTT, mean ± SD, read-out: 48h IC50 HeLa
[2] = Homo sapiens, single agent, read-out: 48h IC50 HeLa (Table 4)

Row | Structure (SMILES) | IC50 (HeLa cells; [1]) | IC50 (SiHa cells; Homo sapiens) | IC50 (H8 cells; Homo sapiens) | further results
1 | COc1cc(O)c(C(=O)/C=C/c2ccc(CN3CCC(O)CC3)cc2)cc1CN1CCC(O)CC1 [6a, (E)-1-(2-hydroxy-5-((4-hydroxypiperidin-1-yl)methyl)-4-methoxyphenyl)-3-(4-((4-hydroxypiperidin-1-yl)methyl)phenyl)prop-2-en-1-one] | 72.9 ± 0.12 µM | > 100 µM | > 100 µM | 
2 | COc1cc(O)c(C(=O)/C=C/c2ccc(CN3CCC(OC)CC3)cc2)cc1CN1CCC(O)CC1 [6b, (E)-1-(2-hydroxy-5-((4-hydroxypiperidin-1-yl)methyl)-4-methoxyphenyl)-3-(4-((4-methoxypiperidin-1-yl)methyl)phenyl)prop-2-en-1-one] | 40.13 ± 0.11 µM | 57.1 ± 1.3 µM | 82.5 ± 5.21 µM | 
3 | COc1cc(O)c(C(=O)/C=C/c2ccc(CN3CCCC3)cc2)cc1CN1CCC(O)CC1 [6c, (E)-1-(2-hydroxy-5-((4-hydroxypiperidin-1-yl)methyl)-4-methoxyphenyl)-3-(4-(pyrrolidin-1-ylmethyl)phenyl)prop-2-en-1-one] | 32.17 ± 0.14 µM | 44.49 ± 0.38 µM | 34 ± 4.14 µM | 
4 | COc1cc(O)c(C(=O)/C=C/c2ccc(CN3CCN(C)CC3)cc2)cc1CN1CCC(O)CC1 [6d, (E)-1-(2-hydroxy-5-((4-hydroxypiperidin-1-yl)methyl)-4-methoxyphenyl)-3-(4-((4-methylpiperazin-1-yl)methyl)phenyl)prop-2-en-1-one] | > 100 µM | > 100 µM | > 100 µM | 
5 | COc1cc(O)c(C(=O)/C=C/c2ccc(CN3CCOCC3)cc2)cc1CN1CCC(O)CC1 [6e, (E)-1-(2-hydroxy-5-((4-hydroxypiperidin-1-yl)methyl)-4-methoxyphenyl)-3-(4-(morpholinomethyl)phenyl)prop-2-en-1-one] | 56.7 ± 0.59 µM | > 100 µM | 75.69 ± 0.49 µM | 
6 | COc1cc(O)c(C(=O)/C=C/c2ccc(CN3CCC(C)CC3)cc2)cc1CN1CCC(OC)CC1 [6g, (E)-1-(2-hydroxy-4-methoxy-5-((4-methoxypiperidin-1-yl)methyl)phenyl)-3-(4-((4-methylpiperidin-1-yl)methyl)phenyl)prop-2-en-1-one] | 47.05 ± 0.11 µM | 85.04 ± 0.47 µM | 72.9 ± 1.08 µM | 
7 | COc1cc(O)c(C(=O)/C=C/c2ccc(CN3CCOCC3)cc2)cc1CN1CCC(OC)CC1 [6h, (E)-1-(2-hydroxy-4-methoxy-5-((4-methoxypiperidin-1-yl)methyl)phenyl)-3-(4-(morpholinomethyl)phenyl)prop-2-en-1-one] | > 100 µM | > 100 µM | > 100 µM | 
8 | COc1cc(O)c(C(=O)/C=C/c2ccc(CN3CCC(O)CC3)cc2)cc1CN1CCCC1 [6i, (E)-1-(2-hydroxy-4-methoxy-5-(pyrrolidin-1-ylmethyl)phenyl)-3-(4-((4-hydroxypiperidin-1-yl)methyl)phenyl)prop-2-en-1-one] | 46.15 ± 0.35 µM | 77.02 ± 0.22 µM | 71.64 ± 0.48 µM | 
9 | COc1cc(O)c(C(=O)/C=C/c2ccc(CN3CCOCC3)cc2)cc1CN1CCCC1 [6j, (E)-1-(2-hydroxy-4-methoxy-5-(pyrrolidin-1-ylmethyl)phenyl)-3-(4-(morpholinomethyl)phenyl)prop-2-en-1-one] | 37.74 ± 0.22 µM | 47.65 ± 0.19 µM | 58.46 ± 0.19 µM | 
10 | COc1cc(O)c(C(=O)/C=C/c2ccc(CN3CCC(OC)CC3)cc2)cc1CN1CCCC1 [6l, (E)-1-(2-hydroxy-4-methoxy-5-(pyrrolidin-1-ylmethyl)phenyl)-3-(4-((4-methoxypiperidin-1-yl)methyl)phenyl)prop-2-en-1-one] | > 100 µM | > 100 µM | > 100 µM | 
11 | COc1cc(O)c(C(=O)/C=C/c2ccc(CN3CCN(C)CC3)cc2)cc1CN1CCCC1 [6m, (E)-1-(2-hydroxy-4-methoxy-5-(pyrrolidin-1-ylmethyl)phenyl)-3-(4-((4-methylpiperazin-1-yl)methyl)phenyl)prop-2-en-1-one] | 52.43 ± 0.42 µM | > 100 µM | > 100 µM | 
12 | COc1cc(O)c(C(=O)/C=C/c2ccc(CN3CCOCC3)cc2)cc1CN1CCOCC1 [6n, (E)-1-(2-hydroxy-4-methoxy-5-(morpholinomethyl)phenyl)-3-(4-(morpholinomethyl)phenyl)prop-2-en-1-one] | > 100 µM | > 100 µM | > 100 µM | 
13 | COc1cc(O)c(C(=O)/C=C/c2ccc(CN3CCC(OC)CC3)cc2)cc1CN1CCOCC1 [6p, (E)-1-(2-hydroxy-4-methoxy-5-(morpholinomethyl)phenyl)-3-(4-((4-methoxypiperidin-1-yl)methyl)phenyl)prop-2-en-1-one] | 79.9 ± 2.4 µM | 66.04 ± 0.49 µM | 85.4 ± 3.92 µM | 
14 | COc1cc(O)c(C(=O)/C=C/c2ccc(CN3CCOCC3)cc2)cc1CN1CCC(C)CC1 [6q, (E)-1-(2-hydroxy-4-methoxy-5-((4-methylpiperidin-1-yl)methyl)phenyl)-3-(4-(morpholinomethyl)phenyl)prop-2-en-1-one] | 88.17 ± 0.72 µM | > 100 µM | > 100 µM | 
15 | COc1cc(O)c(C(=O)/C=C/c2ccc(CN3CCC(C)CC3)cc2)cc1CN1CCC(C)CC1 [6r, (E)-1-(2-hydroxy-4-methoxy-5-((4-methylpiperidin-1-yl)methyl)phenyl)-3-(4-((4-methylpiperidin-1-yl)methyl)phenyl)prop-2-en-1-one] | 25.5 ± 1.21 µM | 36.6 ± 1.94 µM | 42.2 ± 0.8 µM | 
16 | COc1cc(O)c(C(=O)/C=C/c2ccc(CN3CCCC3)cc2)cc1CN1CCC(C)CC1 [6s, (E)-1-(2-hydroxy-4-methoxy-5-((4-methylpiperidin-1-yl)methyl)phenyl)-3-(4-(pyrrolidin-1-ylmethyl)phenyl)prop-2-en-1-one] | 30.9 ± 0.39 µM | 36.1 ± 1.71 µM | 35.4 ± 0.61 µM | 
17 | COc1cc(O)c(C(=O)/C=C/c2ccc(CN3CCN(C)CC3)cc2)cc1CN1CCC(C)CC1 [6t, (E)-1-(2-hydroxy-4-methoxy-5-((4-methylpiperidin-1-yl)methyl)phenyl)-3-(4-((4-methylpiperazin-1-yl)methyl)phenyl)prop-2-en-1-one] | 30.9 ± 0.18 µM | 36 ± 6.3 µM | 42.11 ± 0.31 µM | 
18 | COc1cc(O)c(C(=O)/C=C/c2ccc(CN3CCC(C)CC3)cc2)cc1CN1CCN(C)CC1 [6u, (E)-1-(2-hydroxy-4-methoxy-5-((4-methylpiperazin-1-yl)methyl)phenyl)-3-(4-((4-methylpiperidin-1-yl)methyl)phenyl)prop-2-en-1-one] | 28.01 ± 0.14 µM | 28.2 ± 0.5 µM | 42.5 ± 0.85 µM | 
19 | N.N.[Cl][Pt][Cl] [Cisplatin, reference compound] |  |  |  | IC50 (HeLa cells; MTT, mean ± SD, read-out: 48h IC50 HeLa): 13.6 ± 1.63 µM; IC50 (HeLa cells; single agent, read-out: 48h IC50 HeLa (Table 4)): 13.6 ± 1.63 µM; IC50 (SiHa cells): 21.6 ± 2.9 µM; IC50 (H8 cells): 24.8 ± 1.37 µM; RI (resistance index) (HeLa/DDP cells): 7.36; IC50 (HeLa/DDP cells): 100 ± 7.94 µM
20 | COc1cccc2c1C(=O)c1c(O)c3c(c(O)c1C2=O)C[C@@](O)(C(=O)CO)C[C@@H]3O[C@H]1C[C@H](N)[C@H](O)[C@H](C)O1 [Doxorubicin] |  |  |  | IC50 (HeLa cells; [2]): 10.6 ± 0.5 µM; RI (resistance index) (HeLa/DDP cells): 3.93; IC50 (HeLa/DDP cells; Homo sapiens): 41.6 ± 2.05 µM
21 | CC(=O)O[C@H]1C(=O)[C@@]2(C)[C@H]([C@H](OC(=O)c3ccccc3)[C@]3(O)C[C@H](OC(=O)[C@H](O)[C@@H](NC(=O)c4ccccc4)c4ccccc4)C(C)=C1C3(C)C)[C@]1(OC(C)=O)CO[C@@H]1C[C@@H]2O [Paclitaxel, reference compound] |  |  |  | IC50 (HeLa cells; [2]): 20.1 ± 1.05 µM; IC50 (HeLa/DDP cells; Homo sapiens): 125 ± 5.3 µM
